Data published in US10287255B2, “Compounds as histone deacetylase 6 inhibitors and pharmaceutical compositions comprising the same” (CHONG KUN DANG PHARMACEUTICAL CORP., priority 2014, dated 2019).

Key:
[1] = biological target: T1, human recombinant HDAC1 (Homo sapiens, UniProt Q13547); test: HDAC1 enzyme activity inhibition assay (in vitro, fluorimetric); assay type: biochemical; conditions: human recombinant HDAC1, fluorimetric kit, 30° C. 60 minutes
T1 construct: purchased Enzo Life Science BML-SE456
Description: (§1) In order to examine the HDAC6 selectivity of the compounds of formula 1 of the present invention by HDAC1 and HDAC6 enzymatic activity inhibition assays, an experiment was performed using a conventional substance as a control.
(§2) HDAC enzyme activity was measured using a HDAC Fluorimetric Drug Discovery Kit (BML-AK511, 516, Enzo Life Science). For the HDAC1 enzyme activity test, human recombinant HDAC1 (BML-SE456) was used as an enzyme source, and Fluor de Lys®-“SIRT1 (BNL-KI177) was used as a substrate. A 5-fold dilution of the compound was seeded into a 96-well plate, and then 0.3 μg of the enzyme and 10 μM of the substrate were added to each well of the plate and allowed to react at 30° C. for 60 minutes. Then, Fluor de Lys® Developer II (BML-KI176) was added thereto and allowed to react for 30 minutes, after which the fluorescence value (Ex 360, Em 460) was measured using a multi-plate reader (Flexstation 3, Molecular Device). The HDAC6 enzyme was tested using human recombinant HDAC6 (382180) (Calbiochem) according to the same protocol as the HDAC1 enzyme activity test method. Based on the resulting values, each IC50 value was calculated using GraphPad Prism4.0 program.

[2] = biological target: T2, human recombinant HDAC6 (Homo sapiens, UniProt Q9UBN7); test: HDAC6 enzyme activity inhibition assay (in vitro, fluorimetric); assay type: biochemical; conditions: for HDAC6 selectivity (fold): HDAC6 selectivity over HDAC1; for IC50: human recombinant HDAC6, fluorimetric kit, same protocol as HDAC1
T2 construct: purchased Calbiochem 382180
T2 sequence (Q9UBN7 1-1215): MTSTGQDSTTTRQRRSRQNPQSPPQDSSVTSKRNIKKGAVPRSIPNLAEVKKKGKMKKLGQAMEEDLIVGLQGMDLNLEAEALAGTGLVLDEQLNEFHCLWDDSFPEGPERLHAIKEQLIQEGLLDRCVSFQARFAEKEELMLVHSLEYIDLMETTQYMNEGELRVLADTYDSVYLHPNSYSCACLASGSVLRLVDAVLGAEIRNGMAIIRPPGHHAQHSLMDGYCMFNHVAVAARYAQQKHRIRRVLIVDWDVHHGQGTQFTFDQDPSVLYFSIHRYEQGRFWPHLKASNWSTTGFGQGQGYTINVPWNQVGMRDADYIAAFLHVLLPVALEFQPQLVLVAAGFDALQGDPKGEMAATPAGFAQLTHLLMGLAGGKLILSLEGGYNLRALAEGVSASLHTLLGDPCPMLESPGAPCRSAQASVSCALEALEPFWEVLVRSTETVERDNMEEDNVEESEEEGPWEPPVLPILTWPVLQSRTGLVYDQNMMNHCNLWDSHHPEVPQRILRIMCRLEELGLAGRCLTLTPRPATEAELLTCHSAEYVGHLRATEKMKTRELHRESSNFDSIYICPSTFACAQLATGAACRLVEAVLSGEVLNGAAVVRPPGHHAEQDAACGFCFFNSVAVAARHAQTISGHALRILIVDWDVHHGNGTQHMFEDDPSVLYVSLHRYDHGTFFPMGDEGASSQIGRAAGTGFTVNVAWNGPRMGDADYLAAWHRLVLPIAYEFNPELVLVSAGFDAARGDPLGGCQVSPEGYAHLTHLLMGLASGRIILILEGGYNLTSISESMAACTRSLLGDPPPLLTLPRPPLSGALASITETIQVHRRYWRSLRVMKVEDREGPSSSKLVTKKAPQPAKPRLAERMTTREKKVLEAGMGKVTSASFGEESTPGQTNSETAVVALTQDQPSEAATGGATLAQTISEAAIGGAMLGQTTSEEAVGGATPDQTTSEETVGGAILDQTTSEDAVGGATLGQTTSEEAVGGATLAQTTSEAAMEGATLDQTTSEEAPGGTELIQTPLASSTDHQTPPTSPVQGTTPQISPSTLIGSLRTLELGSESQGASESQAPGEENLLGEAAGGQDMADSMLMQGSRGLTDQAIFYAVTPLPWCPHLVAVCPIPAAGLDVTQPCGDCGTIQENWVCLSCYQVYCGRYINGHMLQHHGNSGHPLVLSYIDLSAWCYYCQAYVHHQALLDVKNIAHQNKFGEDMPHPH
Description: as §1, §2

T1 sequence (Q13547 whole entry): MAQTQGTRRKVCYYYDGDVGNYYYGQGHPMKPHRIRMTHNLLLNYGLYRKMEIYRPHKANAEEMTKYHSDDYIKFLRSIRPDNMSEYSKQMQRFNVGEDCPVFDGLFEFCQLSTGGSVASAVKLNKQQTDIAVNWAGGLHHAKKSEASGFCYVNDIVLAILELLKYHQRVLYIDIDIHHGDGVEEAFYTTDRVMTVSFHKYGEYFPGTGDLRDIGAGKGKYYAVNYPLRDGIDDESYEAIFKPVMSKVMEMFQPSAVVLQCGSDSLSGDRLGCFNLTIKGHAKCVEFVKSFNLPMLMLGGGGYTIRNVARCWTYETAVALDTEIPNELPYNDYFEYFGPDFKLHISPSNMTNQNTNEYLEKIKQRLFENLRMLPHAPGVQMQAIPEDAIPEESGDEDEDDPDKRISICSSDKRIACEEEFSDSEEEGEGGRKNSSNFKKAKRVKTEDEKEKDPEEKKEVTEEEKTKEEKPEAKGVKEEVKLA

SMILES	IC50 [1]	HDAC6 selectivity (fold) [2]	IC50 [2]
C[C@@H]1CN(Cc2ccc(C(=O)NO)cc2)C[C@H](C)N1C(=O)c1cccc(-c2ccncc2)c1 [Compound 245, 4-(((3R,5S)-3,5-dimethyl-4-(3-(pyridin-4-yl)benzoyl)piperazin-1-yl)methyl)-N-hydroxybenzamide]	3600 nM	31 fold	116 nM
C[C@@H]1CN(Cc2ccc(C(=O)NO)cc2)C[C@H](C)N1Cc1ccc2ccccc2c1 [Compound 265, 4-(((3R,5S)-3,5-dimethyl-4-(naphthalen-2-ylmethyl)piperazin-1-yl)methyl)-N-hydroxybenzamide]	6200 nM	84 fold	74 nM
C[C@@H]1CN(Cc2ccccc2-c2ccoc2)C[C@H](C)N1Cc1ccc(C(=O)NO)cc1 [Compound 348, 4-(((2S,6R)-4-(2-(furan-3-yl)benzyl)-2,6-dimethylpiperazin-1-yl)methyl)-N-hydroxybenzamide]	4700 nM	6 fold	843 nM
C[C@@H]1CN(Cc2ccc(C(=O)NO)cc2F)C[C@H](C)N1Cc1ccccc1 [Compound 813, 4-(((3R,5S)-4-benzyl-3,5-dimethylpiperazin-1-yl)methyl)-3-fluoro-N-hydroxybenzamide]	17200 nM	1720 fold	10 nM
C[C@@H]1CN(C(=O)Cc2cccc(Cl)c2)C[C@H](C)N1Cc1ccc(C(=O)NO)cc1 [Compound 233, 4-(((2S,6R)-4-(2-(3-chlorophenyl)acetyl)-2,6-dimethylpiperazin-1-yl)methyl)-N-hydroxybenzamide]	16900 nM	11 fold	1480 nM
C[C@@H]1CN(C(=O)N(C)c2ccccc2)C[C@H](C)N1Cc1ccc(C(=O)NO)cc1 [Compound 196, (3R,5S)-4-(4-(hydroxycarbamoyl)benzyl)-N,3,5-trimethyl-N-phenylpiperazine-1-carboxamide]	14400 nM	97 fold	148 nM
C[C@@H]1CN(S(=O)(=O)c2ccc(CC(=O)NO)cc2)C[C@H](C)N1Cc1ccccc1 [Compound 820, 2-(4-(((3R,5S)-4-benzyl-3,5-dimethylpiperazin-1-yl)sulfonyl)phenyl)-N-hydroxyacetamide]	2250 nM	9 fold	250 nM
C[C@@H]1CN(Cc2ccc(/C=C/C(=O)NO)cc2)C[C@H](C)N1Cc1cccc(CN2CCOCC2)c1 [Compound 472, (E)-3-(4-(((3R,5S)-3,5-dimethyl-4-(3-(morpholinomethyl)benzyl)piperazin-1-yl)methyl)phenyl)-N-hydroxyacrylamide]	200 nM	3 fold	55 nM
C[C@@H]1CN(C(=O)Nc2ccc3c(c2)CCO3)C[C@H](C)N1Cc1ccc(C(=O)NO)cc1 [Compound 187, (3R,5S)-N-(2,3-dihydrobenzofuran-5-yl)-4-(4-(hydroxycarbamoyl)benzyl)-3,5-dimethylpiperazine-1-carboxamide]	1100 nM	5 fold	239 nM
COc1cccc(NC(=O)N2C[C@@H](C)N(Cc3ccc(C(=O)NO)cc3)[C@@H](C)C2)c1 [Compound 164, (3R,5S)-4-(4-(hydroxycarbamoyl)benzyl)-N-(3-methoxyphenyl)-3,5-dimethylpiperazine-1-carboxamide]	500 nM	4 fold	135 nM
C[C@@H]1CN(C(=O)c2ccccc2-c2ccoc2)C[C@H](C)N1Cc1ccc(C(=O)NO)cc1 [Compound 277, 4-(((2S,6R)-4-(2-(furan-3-yl)benzoyl)-2,6-dimethylpiperazin-1-yl)methyl)-N-hydroxybenzamide]	10400 nM	23 fold	455 nM
C[C@@H]1CN(Cc2ccc(C(=O)NO)cc2)C[C@H](C)N1S(=O)(=O)c1ccccc1 [Compound 100, 4-(((3R,5S)-3,5-dimethyl-4-(phenylsulfonyl)piperazin-1-yl)methyl)-N-hydroxybenzamide]	> 10000 nM	>105 fold	95 nM
C[C@@H]1CN(Cc2ccc(C(=O)NO)cc2)C[C@H](C)N1C(=O)c1ccccc1-c1cccnc1 [Compound 286, 4-(((3R,5S)-3,5-dimethyl-4-(2-(pyridin-3-yl)benzoyl)piperazin-1-yl)methyl)-N-hydroxybenzamide]	13100 nM	81 fold	161 nM
C[C@@H]1CN(Cc2ccccc2)C[C@H](C)N1Cc1ccc(C(=O)NO)cn1 [Compound 195, 6-(((2S,6R)-4-benzyl-2,6-dimethylpiperazin-1-yl)methyl)-N-hydroxynicotinamide]	22400 nM	55 fold	410 nM
C[C@@H]1CN(C(=O)c2cccc(Cl)c2)C[C@H](C)N1Cc1ccc(C(=O)NO)cc1 [Compound 107, 4-(((2S,6R)-4-(3-chlorobenzoyl)-2,6-dimethylpiperazin-1-yl)methyl)-N-hydroxybenzamide]	8300 nM	81 fold	103 nM
C[C@@H]1CN(Cc2ccc(C(=O)NO)cc2)C[C@H](C)N1C(=O)c1cccc(CN2CCN(S(C)(=O)=O)CC2)c1 [Compound 444, 4-(((3R,5S)-3,5-dimethyl-4-(3-((4-(methylsulfonyl)piperazin-1-yl)methyl)benzoyl)piperazin-1-yl)methyl)-N-hydroxybenzamide]	8500 nM	146 fold	58 nM
CC(C)CCN1CCN(Cc2cccc(CN3[C@H](C)CN(Cc4ccc(C(=O)NO)cc4)C[C@@H]3C)c2)CC1 [Compound 454, N-hydroxy-4-(((3R,5S)-4-(3-((4-isopentylpiperazin-1-yl)methyl)benzyl)-3,5-dimethylpiperazin-1-yl)methyl)benzamide]	–	–	44 nM
C[C@@H]1CN(Cc2ccc(C(=O)NO)c(F)c2)C[C@H](C)N1Cc1ccccc1 [Compound 171, 4-(((3R,5S)-4-benzyl-3,5-dimethylpiperazin-1-yl)methyl)-2-fluoro-N-hydroxybenzamide]	–	>256 fold	39 nM
C[C@@H]1CN(Cc2ccc(C(=O)NO)cc2)C[C@H](C)N1Cc1ccccc1C1=CCC(C)(C)CC1 [Compound 331, 4-(((3R,5S)-4-((4′,4′-dimethyl-2′,3′,4′,5′-tetrahydro-[1,1′-biphenyl]-2-yl)methyl)-3,5-dimethylpiperazin-1-yl)methyl)-N-hydroxybenzamide]	–	13 fold	731 nM
C[C@@H]1CN(Cc2ccc3oc(C(=O)NO)cc3c2)C[C@H](C)N1Cc1ccccc1 [Compound 571, 5-(((3R,5S)-4-benzyl-3,5-dimethylpiperazin-1-yl)methyl)-N-hydroxybenzofuran-2-carboxamide]	–	48 fold	210 nM
C[C@@H]1CN(Cc2ccccc2)C[C@H](C)N1Cc1ccc(CC(=O)NO)cc1 [Compound 176, 2-(4-(((2S,6R)-4-benzyl-2,6-dimethylpiperazin-1-yl)methyl)phenyl)-N-hydroxyacetamide]	–	>23 fold	429 nM
C[C@@H]1CN(Cc2ccc(C(=O)NO)cc2)C[C@H](C)N1CCc1ccccc1 [Compound 184, 4-(((3R,5S)-3,5-dimethyl-4-phenethylpiperazin-1-yl)methyl)-N-hydroxybenzamide]	–	>40 fold	249 nM
